Source: patent US6583175B2, “Alkylxanthates and use of alkylxanthates in the integrated pest management” (Council of Scientific & Industrial Research, priority 2001, dated 2003)
Values after ≈ are worked out from the molar mass of the structure shown. Read-outs that look alike come from different tables or passages of the source.

Columns and labels:
[1] = tested on: Spodoptera litura; assay: Antifeedant activity against late third instar of Spodoptera litura (leaf disk, oral feeding); format: in vivo
[2] = tested on: Brine shrimp, Artemia salina; settings: in vivo
[3] = tested on: lice; settings: in vivo; cited from earlier work
[4] = in vivo; settings: Artemia salina (brine shrimp), other: exposure in artificial seawater in the sample vial
[5] = tested on: Aedes aegypti mosquito; settings: various aquatic stages of Aedes aegypti; cited from earlier work
[6] = tested on: Helicoverpa armigera; format: in vivo; settings: topical
[7] = tested on: Spodoptera litura; format: in vivo; settings: topical
[8] = tested on: Aedes aegypti; format: in vivo; settings: IV instar larvae, 24 hours

## C/C=C(\C)C(=O)O[C@H]1C[C@@H](OC(C)=O)[C@@]2(C(=O)OC)CO[C@H]3[C@@H](O)[C@@](C)([C@]45O[C@@]4(C)[C@H]4C[C@@H]5O[C@@H]5OC=C[C@@]54O)[C@H]4[C@]1(CO[C@]4(O)C(=O)OC)[C@@H]32 [Azadiractin, reference compound]
[1]; in vivo
  Concentration required for 50% leaf protection EC50 ± S.E.: 6.34 ± 1.77 μg/cm^2

## CC[C@@]1(O)C(=O)OCc2c1cc1n(c2=O)Cc2cc3ccccc3nc2-1 [Chamtothecin, reference compound]
[2]
  LC50 ± S.E.: 2.53 ± 0.43 mg/L (≈ 7.26 µM)

## S=C(OCc1ccccc1)SCCSC(=S)OCc1ccccc1 [Compound 5, Ethylene Bis(benzylxanthate)]
[3]
  insecticidal activity against lice: moderate insecticidal activity

## CC(C)COC(=S)SCCSC(=S)OCC(C)C [Ethylene bis (isobutylxanthate), Ethylene Bis (isobutylxanthate)]
[1]; 20 μg/sq. cm.
  A.I. (Anti-feedent Index): 8.14
  Percent leaf consumption 12 hr: 60.2%
  Percent leaf consumption 24 hr: 80.7%
[1]; 35 μg/sq. cm.
  A.I. (Anti-feedent Index): 20.48
  Percent leaf consumption 12 hr: 36.1%
  Percent leaf consumption 24 hr: 62.7%
[1]; 50 μg/sq. cm.
  A.I. (Anti-feedent Index): 34.85
  Percent leaf consumption 12 hr: 22.4%
  Percent leaf consumption 24 hr: 45.9%
[1]; 65 μg/sq. cm.
  A.I. (Anti-feedent Index): 58.07
  Percent leaf consumption 12 hr: 9.3%
  Percent leaf consumption 24 hr: 25.2%
[1]; late third instar
  Concentration required for 50% leaf protection EC50 ± S.E.: 42.46 ± 5.76 μg/cm^2
[4]
  LC50 at 24 h: 25.8 ± 2.9 µg/mL (≈ 78.9 µM)
[5]
  larvicidal and insect growth regulatory activity: larvicidal and insect growth regulatory activity in dose dependent mannar

## CCCCOC(=S)SCSC(=S)OCCCC [Methylene bis (n-butylxanthate), Methylene Bis(n-butylxanthate)]
[6]; 20 μg/Insect
  Adult emergence: Abnormal adults: 41
  Adult emergence: Intermediates: 17
  Adult emergence: Non emergence: 3
  Adult emergence: Normal adults: 27
  Larval mortality (%): 7%
  Pupal Formation: Abnormal pupa: 36
  Pupal Formation: Normal pupa: 52
  Pupal Formation: Pupal Mortality: 5
[6]; 35 μg/Insect
  Adult emergence: Abnormal adults: 11
  Adult emergence: Intermediates: 18
  Adult emergence: Non emergence: 9
  Adult emergence: Normal adults: 17
  Larval mortality (%): 12%
  Pupal Formation: Abnormal pupa: 28
  Pupal Formation: Normal pupa: 27
  Pupal Formation: Pupal Mortality: 33
[6]; 50 μg/Insect
  Adult emergence: Abnormal adults: 9
  Adult emergence: Intermediates: 6
  Adult emergence: Non emergence: 21
  Adult emergence: Normal adults: 8
  Larval mortality (%): 28%
  Pupal Formation: Abnormal pupa: 32
  Pupal Formation: Normal pupa: 12
  Pupal Formation: Pupal Mortality: 28
[6]; 75 μg/Insect
  Adult emergence: Abnormal adults: 1
  Adult emergence: Intermediates: 2
  Adult emergence: Non emergence: 24
  Adult emergence: Normal adults: 0
  Larval mortality (%): 49%
  Pupal Formation: Abnormal pupa: 27
  Pupal Formation: Normal pupa: 0
  Pupal Formation: Pupal Mortality: 24
[6]; 100 μg/Insect
  Adult emergence: Abnormal adults: 0
  Adult emergence: Intermediates: 2
  Adult emergence: Non emergence: 20
  Adult emergence: Normal adults: 0
  Larval mortality (%): 61%
  Pupal Formation: Abnormal pupa: 22
  Pupal Formation: Normal pupa: 0
  Pupal Formation: Pupal Mortality: 17
[1]; 10 μg/sq. cm.
  A.I. (Anti-feedent Index): 5.50
  Percent leaf consumption 12 hr: 48.55%
  Percent leaf consumption 24 hr: 85.1%
[1]; 15 μg/sq. cm.
  A.I. (Anti-feedent Index): 22.27
  Percent leaf consumption 12 hr: 35.2%
  Percent leaf consumption 24 hr: 60.4%
[1]; 20 μg/sq. cm.
  A.I. (Anti-feedent Index): 35.14
  Percent leaf consumption 12 hr: 22.5%
  Percent leaf consumption 24 hr: 45.6%
[1]; 25 μg/sq. cm.
  A.I. (Anti-feedent Index): 64.22
  Percent leaf consumption 12 hr: 3.5%
  Percent leaf consumption 24 hr: 20.7%
[1]; 30 μg/sq. cm.
  A.I. (Anti-feedent Index): 85.37
  Percent leaf consumption 12 hr: 0%
  Percent leaf consumption 24 hr: 7.5%
[1]; late third instar
  Concentration required for 50% leaf protection EC50 ± S.E.: 17.11 ± 1.36 μg/cm^2
[7]; 5 μg/Insect
  Adult emergence: Abnormal adults: 26
  Adult emergence: Intermediates: 28
  Adult emergence: Non-emergence: 0
  Adult emergence: Normal adults: 41
  Larval mortality (%): 0%
  Pupal Formation: Abnormal pupa: 41
  Pupal Formation: Normal pupa: 59
  Pupal Formation: Pupal Mortality: 5
[7]; 10 μg/Insect
  Adult emergence: Abnormal adults: 22
  Adult emergence: Intermediates: 34
  Adult emergence: Non-emergence: 1
  Adult emergence: Normal adults: 36
  Larval mortality (%): 0%
  Pupal Formation: Abnormal pupa: 48
  Pupal Formation: Normal pupa: 52
  Pupal Formation: Pupal Mortality: 8
[7]; 20 μg/Insect
  Adult emergence: Abnormal adults: 27
  Adult emergence: Intermediates: 32
  Adult emergence: Non-emergence: 2
  Adult emergence: Normal adults: 24
  Larval mortality (%): 0%
  Pupal Formation: Abnormal pupa: 53
  Pupal Formation: Normal pupa: 47
  Pupal Formation: Pupal Mortality: 17
[7]; 35 μg/Insect
  Adult emergence: Abnormal adults: 23
  Adult emergence: Intermediates: 23
  Adult emergence: Non-emergence: 25
  Adult emergence: Normal adults: 7
  Larval mortality (%): 21%
  Pupal Formation: Abnormal pupa: 54
  Pupal Formation: Normal pupa: 25
  Pupal Formation: Pupal Mortality: 26
[7]; 50 μg/Insect
  Adult emergence: Abnormal adults: 6
  Adult emergence: Intermediates: 8
  Adult emergence: Non-emergence: 9
  Adult emergence: Normal adults: 5
  Larval mortality (%): 57%
  Pupal Formation: Abnormal pupa: 38
  Pupal Formation: Normal pupa: 5
  Pupal Formation: Pupal Mortality: 24
[7]; 75 μg/Insect
  Adult emergence: Abnormal adults: 1
  Adult emergence: Intermediates: 2
  Adult emergence: Non-emergence: 25
  Adult emergence: Normal adults: 0
  Larval mortality (%): 72%
  Pupal Formation: Abnormal pupa: 28
  Pupal Formation: Normal pupa: 0
  Pupal Formation: Pupal Mortality: 25
[7]; 100 μg/Insect
  Adult emergence: Abnormal adults: 0
  Adult emergence: Intermediates: 0
  Adult emergence: Non-emergence: 14
  Adult emergence: Normal adults: 0
  Larval mortality (%): 86%
  Pupal Formation: Abnormal pupa: 14
  Pupal Formation: Normal pupa: 0
  Pupal Formation: Pupal Mortality: 14
[8]
  LC50 ± S.E.: 5.33 ± 0.97 mg/L (≈ 17.1 µM)

## S=C(OCC1CCCO1)SCSC(=S)OCC1CCCO1 (stereo not shown) [methylene Bis (tetrahydrofurfuryl xanthate)]
[1]; 12.5 μg/sq. cm.
  A.I. (Anti-feedent Index): 8.20
  Percent leaf consumption 12 hr: 48.6%
  Percent leaf consumption 24 hr: 80.6%
[1]; 25 μg/sq. cm.
  A.I. (Anti-feedent Index): 22.42
  Percent leaf consumption 12 hr: 31.5%
  Percent leaf consumption 24 hr: 60.2%
[1]; 35 μg/sq. cm.
  A.I. (Anti-feedent Index): 33.52
  Percent leaf consumption 12 hr: 25.9%
  Percent leaf consumption 24 hr: 47.3%
[1]; 50 μg/sq. cm.
  A.I. (Anti-feedent Index): 35.23
  Percent leaf consumption 12 hr: 22.1%
  Percent leaf consumption 24 hr: 45.5%
[1]; late third instar
  Concentration required for 50% leaf protection EC50 ± S.E.: 37.21 ± 9.67 μg/cm^2
[7]; 5 μg/Insect
  Adult emergence: Abnormal adults: 22
  Adult emergence: Intermediates: 0
  Adult emergence: Non-emergence: 3
  Adult emergence: Normal adults: 37
  Larval mortality (%): 36%
  Pupal Formation: Abnormal pupa: 6
  Pupal Formation: Normal pupa: 58
  Pupal Formation: Pupal Mortality: 5
[7]; 10 μg/Insect
  Adult emergence: Abnormal adults: 19
  Adult emergence: Intermediates: 1
  Adult emergence: Non-emergence: 2
  Adult emergence: Normal adults: 28
  Larval mortality (%): 46%
  Pupal Formation: Abnormal pupa: 10
  Pupal Formation: Normal pupa: 44
  Pupal Formation: Pupal Mortality: 6
[7]; 20 μg/Insect
  Adult emergence: Abnormal adults: 17
  Adult emergence: Intermediates: 21
  Adult emergence: Non-emergence: 2
  Adult emergence: Normal adults: 15
  Larval mortality (%): 59%
  Pupal Formation: Abnormal pupa: 16
  Pupal Formation: Normal pupa: 25
  Pupal Formation: Pupal Mortality: 7
[7]; 35 μg/Insect
  Adult emergence: Abnormal adults: 11
  Adult emergence: Intermediates: 2
  Adult emergence: Non-emergence: 3
  Adult emergence: Normal adults: 9
  Larval mortality (%): 71%
  Pupal Formation: Abnormal pupa: 10
  Pupal Formation: Normal pupa: 19
  Pupal Formation: Pupal Mortality: 7
[7]; 50 μg/Insect
  Adult emergence: Abnormal adults: 9
  Adult emergence: Intermediates: 3
  Adult emergence: Non-emergence: 1
  Adult emergence: Normal adults: 4
  Larval mortality (%): 80%
  Pupal Formation: Abnormal pupa: 13
  Pupal Formation: Normal pupa: 7
  Pupal Formation: Pupal Mortality: 4
[7]; 75 μg/Insect
  Adult emergence: Abnormal adults: 2
  Adult emergence: Intermediates: 0
  Adult emergence: Non-emergence: 2
  Adult emergence: Normal adults: 2
  Larval mortality (%): 91%
  Pupal Formation: Abnormal pupa: 7
  Pupal Formation: Normal pupa: 2
  Pupal Formation: Pupal Mortality: 5
[7]; 100 μg/Insect
  Adult emergence: Abnormal adults: 1
  Adult emergence: Intermediates: 0
  Adult emergence: Non-emergence: 0
  Adult emergence: Normal adults: 0
  Larval mortality (%): 98%
  Pupal Formation: Abnormal pupa: 2
  Pupal Formation: Normal pupa: 0
  Pupal Formation: Pupal Mortality: 1
[2]
  LC50 ± S.E.: 5.63 ± 0.62 mg/L (≈ 15.3 µM)
[8]
  LC50 ± S.E.: 3.77 ± 0.59 mg/L (≈ 10.2 µM)
